Laboratory results: the supplement of paper PMC11061612

Legend:
Assay in all cases: Bliss excess, mean over the matrix (fraction); higher = more synergy
[1] = tested on: TUR (Acute Myeloid Leukemia)
Outline: (§1)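 After 24 hours at 37°C and 5% CO2 in 1536-well plates, cells in DMEM/F12 or RPMI plus 10% FBS received two-drug dose matrices for 72 hours. Viability came from CellTiter-Glo 2.0 luminescence and was scaled as inhibition, anchored at 0 by vehicle wells and at 1 by blank wells. Combination Emax is taken as the second-highest inhibition in the matrix, and Bliss excess as the observed combination effect less EA + EB − EA·EB, with EA and EB the single-agent effects.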

[2] = tested on: MOLT-13 (T-Lymphoblastic Leukemia)
Outline: as §1

[3] = tested on: SUP-M2 (T-Cell Non-Hodgkin's Lymphoma)
Outline: as §1

SK-N-SH (Neuroblastoma) = tested on: SK-N-SH (Neuroblastoma)
Outline: as §1

AM-38 (Glioblastoma) = tested on: AM-38 (Glioblastoma)
Outline: as §1

UACC-257 (Melanoma) = tested on: UACC-257 (Melanoma)
Outline: as §1

[4] = tested on: MS-1 (Small Cell Lung Carcinoma)
Outline: as §1

[5] = tested on: LCLC-103H (Non-Small Cell Lung Carcinoma)
Outline: as §1

IST-MEL1 (Melanoma) = tested on: IST-MEL1 (Melanoma)
Outline: as §1

[6] = tested on: CL-11 (Colorectal Carcinoma)
Outline: as §1

[7] = tested on: Raji (Burkitt's Lymphoma)
Outline: as §1

T47D (Breast Carcinoma) = tested on: T47D (Breast Carcinoma)
Outline: as §1

ES6 (Ewing's Sarcoma) = tested on: ES6 (Ewing's Sarcoma)
Outline: as §1

[8] = tested on: NCI-H596 (Other Solid Carcinomas)
Outline: as §1

NCI-H2373 (Mesothelioma) = tested on: NCI-H2373 (Mesothelioma)
Outline: as §1

[9] = tested on: SNU-C2B (Colorectal Carcinoma)
Outline: as §1

[10] = tested on: SKG-IIIa (Cervical Carcinoma)
Outline: as §1

[11] = tested on: CPC-N (Small Cell Lung Carcinoma)
Outline: as §1

NCI-H226 (Mesothelioma) = tested on: NCI-H226 (Mesothelioma)
Outline: as §1

NB1 (Neuroblastoma) = tested on: NB1 (Neuroblastoma)
Outline: as §1

Structure (SMILES)	Bliss excess [1]	Bliss excess [2]	Bliss excess [3]	Bliss excess (SK-N-SH (Neuroblastoma))	Bliss excess (AM-38 (Glioblastoma))	Bliss excess (UACC-257 (Melanoma))	Bliss excess [4]	Bliss excess [5]	Bliss excess (IST-MEL1 (Melanoma))	Bliss excess [6]	Bliss excess [7]	Bliss excess (T47D (Breast Carcinoma))	Bliss excess (ES6 (Ewing's Sarcoma))	Bliss excess [8]	Bliss excess (NCI-H2373 (Mesothelioma))	Bliss excess [9]	Bliss excess [10]	Bliss excess [11]	Bliss excess (NCI-H226 (Mesothelioma))	Bliss excess (NB1 (Neuroblastoma))
CC(=O)Nc1cccc(-n2c(=O)n(C3CC3)c(=O)c3c(Nc4ccc(I)cc4F)n(C)c(=O)c(C)c32)c1 [Trametinib] + Cc1nc(-c2cn3c(n2)-c2ccc(-c4cnn(C(C)(C)C(N)=O)c4)cc2OCC3)n(C(C)C)n1 [Taselisib] (first compound max 1 µM, 7x7, partner max 10 µM)	0.157	0.153	0.106	0.077	0.117	0.0443	0.0912	0.0657	0.122	0.139	0.0075	0.0046	-0.0292	0.0725	0.0818	0.114	0.112	0.0985	0.003	0.156
CC1(C)CCC(CN2CCN(c3ccc(C(=O)NS(=O)(=O)c4ccc(NCC5CCOCC5)c([N+](=O)[O-])c4)c(Oc4cnc5[nH]ccc5c4)c3)CC2)=C(c2ccc(Cl)cc2)C1 [Venetoclax] + C1CN(CCC1(C(=O)N[C@@H](CCO)C2=CC=C(C=C2)Cl)N)C3=NC=NC4=C3C=CN4 [Capivasertib] (first compound max 1 µM, 7x7, partner max 3 µM)	-0.0176	0.0354	-0.0232	-0.0998	-0.0742	-0.0707	-0.0572	-0.0756	-0.0762	-0.0205	-0.0008	-0.0113	-0.0858	-0.0211	-0.0774	-0.0833	-0.0207	-0.0365	-0.0673	-0.0596
CC1(C)CCC(CN2CCN(c3ccc(C(=O)NS(=O)(=O)c4ccc(NCC5CCOCC5)c([N+](=O)[O-])c4)c(Oc4cnc5[nH]ccc5c4)c3)CC2)=C(c2ccc(Cl)cc2)C1 [Venetoclax] + C=CCn1c(=O)c2cnc(Nc3ccc(N4CCN(C)CC4)cc3)nc2n1-c1cccc(C(C)(C)O)n1 [AZD1775] (first compound max 1 µM, partner max 1 µM)	-0.0071	0.0723	0.03	0.0526	-0.0561	-0.0142	0.0465	-0.0136	0.0462	-0.0425	-0.023	-0.0814	0.025	-0.0783	-0.0789	-0.009	-0.0362	0.0439	-0.0296	-0.0466
CC1(C)CCC(CN2CCN(c3ccc(C(=O)NS(=O)(=O)c4ccc(NCC5CCOCC5)c([N+](=O)[O-])c4)c(Oc4cnc5[nH]ccc5c4)c3)CC2)=C(c2ccc(Cl)cc2)C1 [Venetoclax] + CCN(CCO)CCCOc1ccc2c(Nc3cc(CC(=O)Nc4cccc(F)c4)[nH]n3)ncnc2c1 [AZD2811] (first compound max 1 µM, 7x7, partner max 1 µM)	0.0132	0.055	0.0126	0.0471	-0.0506	-0.0105	-0.045	-0.0756	0.0278	-0.0137	-0.016	0.0229	-0.0166	-0.0394	-0.0047	0.0098	0.0225	-0.048	-0.0604	-0.0139
CC1(C)CCC(CN2CCN(c3ccc(C(=O)NS(=O)(=O)c4ccc(NCC5CCOCC5)c([N+](=O)[O-])c4)c(Oc4cnc5[nH]ccc5c4)c3)CC2)=C(c2ccc(Cl)cc2)C1 [Venetoclax] + CN(C)CCCOc1ccc(-c2ccc3ncc4c(c3c2)n(C2CCOCC2)c(=O)n4C)cn1 [AZD0156] (first compound max 1 µM, 7x7, partner max 1 µM)	-0.0102	0.0928	0.0191	-0.0542	-0.0183	-0.004	0.0128	-0.0404	-0.0207	-0.0419	0.0279	-0.0366	-0.0201	-0.0377	-0.0564	-0.0135	-0.0418	-0.0013	-0.0536	-0.0278
